We go through five compounds from PubChem BioAssay AID394.

This assay has as its target Tyrosine-protein phosphatase non-receptor type 14 (Homo sapiens) (UniProt Q15678). In words: PTPN14 phosphatase ligand binding by thermal shift, biophysical, human, DSF, SYPRO orange (AID 394). To be noted: recombinant PTPN14, DSF thermal shift, at 10 µM, protein 2 µM, buffer 10 mM HEPES, pH 7.5, NaCl 150 mM, active compounds read high.

Sequence of Tyrosine-protein phosphatase non-receptor type 14 (Homo sapiens) (Q15678 whole entry, looked up): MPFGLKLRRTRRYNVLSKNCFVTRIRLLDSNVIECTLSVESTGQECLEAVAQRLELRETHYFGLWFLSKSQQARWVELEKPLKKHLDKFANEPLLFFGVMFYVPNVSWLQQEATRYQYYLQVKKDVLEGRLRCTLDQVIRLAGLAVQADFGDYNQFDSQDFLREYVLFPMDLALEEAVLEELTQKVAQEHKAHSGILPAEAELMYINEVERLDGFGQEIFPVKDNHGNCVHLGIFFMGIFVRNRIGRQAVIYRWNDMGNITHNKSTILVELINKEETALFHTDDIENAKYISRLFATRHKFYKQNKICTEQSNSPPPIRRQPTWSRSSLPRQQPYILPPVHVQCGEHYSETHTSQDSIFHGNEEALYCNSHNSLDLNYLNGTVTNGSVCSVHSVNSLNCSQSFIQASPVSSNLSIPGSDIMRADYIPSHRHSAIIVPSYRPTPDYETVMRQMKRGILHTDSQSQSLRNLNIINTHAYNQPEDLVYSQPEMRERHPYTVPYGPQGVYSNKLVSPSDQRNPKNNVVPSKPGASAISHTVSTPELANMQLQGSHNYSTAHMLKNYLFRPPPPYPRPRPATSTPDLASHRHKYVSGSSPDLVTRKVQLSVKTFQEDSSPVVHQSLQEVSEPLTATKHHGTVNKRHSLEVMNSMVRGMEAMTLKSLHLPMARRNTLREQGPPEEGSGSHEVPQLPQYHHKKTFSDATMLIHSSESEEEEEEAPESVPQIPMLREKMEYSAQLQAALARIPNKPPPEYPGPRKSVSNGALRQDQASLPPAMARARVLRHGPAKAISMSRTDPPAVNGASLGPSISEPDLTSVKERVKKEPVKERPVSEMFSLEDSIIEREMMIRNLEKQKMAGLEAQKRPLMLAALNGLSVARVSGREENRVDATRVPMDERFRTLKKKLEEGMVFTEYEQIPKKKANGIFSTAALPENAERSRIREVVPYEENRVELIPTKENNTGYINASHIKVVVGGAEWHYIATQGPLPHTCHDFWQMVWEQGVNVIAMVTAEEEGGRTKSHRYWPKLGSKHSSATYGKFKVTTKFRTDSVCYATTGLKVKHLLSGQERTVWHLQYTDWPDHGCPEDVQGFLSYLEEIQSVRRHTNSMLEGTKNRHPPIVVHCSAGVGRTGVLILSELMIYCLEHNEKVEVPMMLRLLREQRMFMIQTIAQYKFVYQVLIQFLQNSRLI

In the case of `OO.OO.[K+].[O]=[V].c1ccc(-c2ccccn2)nc1`, the Tm shift was 4.81 Celsius.

Regarding `O=C([O-])c1ccccn1.OO.OO.[K+].[K+].[O]=[V]`, the Tm shift (DTT 2000 µM, with dithiothreitol) was 2.3 Celsius.

`O=C(O)c1ccc([O-])cn1.OO.OO.[K+].[K+].[O]=[V]`: the Tm shift was 4.45 Celsius.

Regarding `OO.OO.[K+].[O]=[V].c1cnc2c(c1)ccc1cccnc12`, the Tm shift is 5.88 Celsius.

Take `O=C(O)c1ccc(O)cn1.OO.[O]=[V]`: the Tm shift is 5.95 Celsius.
